# Assay results as given in patent publication US20230167505A1, “CIRCULATING TUMOR DNA AS A BIOMARKER FOR LEUKEMIA TREATMENT” (Cardiff Oncology, Inc., priority 2020, published 2023).
# Several values for one entry are separate records, joined by “and”; a condition that tells them apart may be missing. Equal entries are not always repeated.
# What was measured:
# AML cell lines = details: cited from earlier work
# [1] = test system: patients with relapsed or refractory (R/R) AML
# Experimental: Treatment plan and study design: Onvansertib was administered orally, in escalating doses, on days 1 through 5 in combination with either LDAC (arm A, 20 mg/m^2 subcutaneously once daily on days 1 through 10) or decitabine (arm B, 20 mg/m^2 intravenously over 1 hour on days 1 through 5) in a 28-day cycle. […] The primary objectives were to evaluate dose-limiting toxicities (DLTs) and the maximum tolerated dose (MTD) or recommended phase 2 dose (RP2D) of onvansertib. […] Each arm followed a standard 3+3 dose-escalation design, in which onvansertib dose was escalated by 50% increments. […] If a DLT was reported, an additional 3 patients were treated at that dose. If ≥2 patients experienced a DLT, the dose was considered nontolerated, and lower doses were explored in subsequent cohorts. […] The MTD was defined as the highest dose achieved at which no more than one of six subjects experienced a DLT. The RP2D was determined based on the assessment of safety, pharmacokinetics, and preliminary efficacy in subjects treated at a dose cleared for safety. For the study, the primary endpoint was to evaluate first-cycle dose-limiting toxicities and the MTD. Secondary and exploratory endpoints included safety, pharmacokinetics, antileukemic activity, and response biomarkers.
# Safety: Patients were evaluable for safety if they had received at least one dose of onvansertib. […] Investigators assessed causality as either unrelated, unlikely, possibly, probably, or definitely related to study drugs. DLTs (defined in Table 1) were evaluated during the first cycle of treatment.
# PLK1 = PLK1 (Homo sapiens, UniProt P53350); details: panel of 296 kinases, including other PLK members; cited from earlier work
# PLK1, sequence (P53350 whole entry): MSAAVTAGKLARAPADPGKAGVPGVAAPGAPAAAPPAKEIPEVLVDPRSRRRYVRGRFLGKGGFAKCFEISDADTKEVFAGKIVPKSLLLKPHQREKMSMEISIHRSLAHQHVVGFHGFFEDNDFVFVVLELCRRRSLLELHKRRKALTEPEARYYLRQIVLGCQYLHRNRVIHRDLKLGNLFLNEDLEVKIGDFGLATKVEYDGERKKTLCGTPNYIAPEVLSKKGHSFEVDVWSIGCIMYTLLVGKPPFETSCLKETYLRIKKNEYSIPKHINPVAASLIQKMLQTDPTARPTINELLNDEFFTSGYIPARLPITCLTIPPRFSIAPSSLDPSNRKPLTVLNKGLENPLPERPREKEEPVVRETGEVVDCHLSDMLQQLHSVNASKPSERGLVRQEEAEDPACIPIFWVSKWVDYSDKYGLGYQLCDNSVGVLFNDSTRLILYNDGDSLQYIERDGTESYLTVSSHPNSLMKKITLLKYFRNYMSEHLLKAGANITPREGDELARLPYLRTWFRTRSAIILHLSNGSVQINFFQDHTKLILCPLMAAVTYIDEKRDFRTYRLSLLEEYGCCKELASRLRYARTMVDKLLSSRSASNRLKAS
# [2] = all patients (N = 40), onvansertib + LDAC or decitabine, patients n (%)
# [3] = phase Ib, onvansertib + LDAC or decitabine
smiles,measurement,setting,value
"CN1CCN(c2ccc(OC(F)(F)F)c(Nc3ncc4c(n3)-c3c(c(C(N)=O)nn3CCO)CC4)c2)CC1 [onvansertib, 1-(2-hydroxyethyl)-8-{[5-(4-methylpiperazin-1-yl)-2-(trifluoromethoxy)phenyl]amino}-4,5-dihydro-1H-pyrazolo [4,3-h] quinazoline-3-carboxamide]",inhibition of cell proliferation,AML cell lines,nanomolar concentrations
same,G3 stomatitis possibly related to onvansertib,"[1]; 3 patients: one at 60 mg/m^2, two at 90 mg/m^2",8%
same,patients discontinued from therapy because of treatment-related AEs,"[1]; G2 fatigue, G3 mucositis (DLT), G4 rash (DLT)",Three
same,"Treatment-emergent AE: Anemia, All grades (%)",[1]; [2],15 (37.5) %
same,"Treatment-emergent AE: Anemia, Grade 1-2 (%)",[1]; [2],1 (2.5) %
same,"Treatment-emergent AE: Blood bilirubin increased, All grades (%)",[1]; [2],4 (10) %
same,"Treatment-emergent AE: Blood bilirubin increased, Grace 3-4 (%)",[1]; [2],1 (2.5) %
same,"Treatment-emergent AE: Blood bilirubin increased, Grade 1-2 (%)",[1]; [2],3 (7.5) %
same,"Treatment-emergent AE: Constipation, All grades (%)",[1]; [2],6 (15) %
same,"Treatment-emergent AE: Constipation, Grade 1-2 (%)",[1]; [2],6 (15) %
same,"Treatment-emergent AE: Cough, All grades (%)",[1]; [2],6 (15) %
same,"Treatment-emergent AE: Cough, Grade 1-2 (%)",[1]; [2],6 (15) %
same,"Treatment-emergent AE: Decreased appetite, All grades (%)",[1]; [2],6 (15) %
same,"Treatment-emergent AE: Decreased appetite, Grade 1-2 (%)",[1]; [2],6 (15) %
same,"Treatment-emergent AE: Diarrhea, All grades (%)",[1]; [2],8 (20) %
same,"Treatment-emergent AE: Diarrhea, Grade 1-2 (%)",[1]; [2],8 (20) %
same,"Treatment-emergent AE: Dizziness, All grades (%)",[1]; [2],5 (12.5) %
same,"Treatment-emergent AE: Dizziness, Grade 1-2 (%)",[1]; [2],5 (12.5) %
same,"Treatment-emergent AE: Dyspnea, All grades (%)",[1]; [2],10 (25) %
same,"Treatment-emergent AE: Dyspnea, Grace 3-4 (%)",[1]; [2],2 (5) %
same,"Treatment-emergent AE: Dyspnea, Grade 1-2 (%)",[1]; [2],8 (20) %
same,"Treatment-emergent AE: Edema, All grades (%)",[1]; [2],8 (20) %
same,"Treatment-emergent AE: Edema, Grace 3-4 (%)",[1]; [2],2 (5) %
same,"Treatment-emergent AE: Edema, Grade 1-2 (%)",[1]; [2],6 (15) %
same,"Treatment-emergent AE: Epistaxis, All grades (%)",[1]; [2],6 (15) %
same,"Treatment-emergent AE: Epistaxis, Grade 1-2 (%)",[1]; [2],6 (15) %
same,"Treatment-emergent AE: Fatigue, All grades (%)",[1]; [2],14 (35) %
same,"Treatment-emergent AE: Fatigue, Grade 1-2 (%)",[1]; [2],14 (35) %
same,"Treatment-emergent AE: Febrile neutropenia, All grades (%)",[1]; [2],12 (30) %
same,"Treatment-emergent AE: Headache, All grades (%)",[1]; [2],4 (10) %
same,"Treatment-emergent AE: Headache, Grade 1-2 (%)",[1]; [2],4 (10) %
same,"Treatment-emergent AE: Leukopenia, All grades (%)",[1]; [2],5 (12.5) %
same,"Treatment-emergent AE: Leukopenia, Grace 3-4 (%)",[1]; [2],12.5% and 5 (12.5) %
same,"Treatment-emergent AE: Lung infection, All grades (%)",[1]; [2],4 (10) %
same,"Treatment-emergent AE: Lung infection, Grace 3-4 (%)",[1]; [2],4 (10) %
same,"Treatment-emergent AE: Nausea/vomiting, All grades (%)",[1]; [2],12 (30) %
same,"Treatment-emergent AE: Nausea/vomiting, Grade 1-2 (%)",[1]; [2],12 (30) %
same,"Treatment-emergent AE: Neutropenia, All grades (%)",[1]; [2],10 (25) %
same,"Treatment-emergent AE: Oropharyngeal pain, All grades (%)",[1]; [2],4 (10) %
same,"Treatment-emergent AE: Oropharyngeal pain, Grade 1-2 (%)",[1]; [2],4 (10) %
same,"Treatment-emergent AE: Pyrexia, All grades (%)",[1]; [2],5 (12.5) %
same,"Treatment-emergent AE: Pyrexia, Grade 1-2 (%)",[1]; [2],5 (12.5) %
same,"Treatment-emergent AE: Rash/pruritus, All grades (%)",[1]; [2],11 (27.5) %
same,"Treatment-emergent AE: Rash/pruritus, Grace 3-4 (%)",[1]; [2],1 (2.5) %
same,"Treatment-emergent AE: Rash/pruritus, Grade 1-2 (%)",[1]; [2],10 (25) %
same,"Treatment-emergent AE: Stomatitis, All grades (%)",[1]; [2],9 (22.5) %
same,"Treatment-emergent AE: Stomatitis, Grace 3-4 (%)",[1]; [2],12.5% and 5 (12.5) %
same,"Treatment-emergent AE: Stomatitis, Grade 1-2 (%)",[1]; [2],4 (10) %
same,"Treatment-emergent AE: Thrombocytopenia, All grades (%)",[1]; [2],12 (30) %
same,"Treatment-emergent AE: Thrombocytopenia, Grade 1-2 (%)",[1]; [2],2 (5) %
same,G3 and G4 AE possibly related to onvansertib: anemia,"[1]; all patients, N = 40",12.5%
same,G3 and G4 AE possibly related to onvansertib: leukopenia,"[1]; all patients, N = 40",5%
same,G3 and G4 AE possibly related to onvansertib: neutropenia,"[1]; all patients, N = 40",15%
same,G3 and G4 AE possibly related to onvansertib: thrombocytopenia,"[1]; all patients, N = 40",12.5%
same,patients experiencing a DLT during the first cycle,"[1]; arm B (decitabine), dose level 6 (90 mg/m^2), grade 3 mucositis and grade 4 rash",2 of 6 and 2 of the 6
same,MTD of onvansertib in combination with decitabine,"[1]; arm B, oral days 1-5 + decitabine 20 mg/m^2 IV days 1-5, 28-day cycle",60 mg/m^2
same,DLTs,"[1]; first five dose levels (12-60 mg/m^2), both arms (LDAC, decitabine)",no DLTs reported
same,tolerability,"[1]; first five dose levels (12-60 mg/m^2), with LDAC or decitabine",well tolerated
same,skin toxicities,[1]; higher incidence and higher grade at 90 mg/m^2,observed at the last two dose levels of onvansertib (60 and 90 mg/m^2)
same,SAEs considered as possibly related to onvansertib,[1]; of 71 SAEs,13%
same,patients with dose reduction of onvansertib due to hematologic toxicities,"[1]; one from 18 mg/m^2, one from 27 mg/m^2 dose level",Two
same,patients with SAEs,"[1]; phase Ib, both arms",33 patients
same,total serious AEs (SAE) reported,"[1]; phase Ib, both arms",71
same,Serious adverse event Aphasia: Number of events,[1]; [3],1
same,Serious adverse event Aphasia: Number of patients,[1]; [3],1
same,Serious adverse event Appendicitis: Number of events,[1]; [3],1
same,Serious adverse event Appendicitis: Number of patients,[1]; [3],1
same,Serious adverse event Arthralgia: Number of events,[1]; [3],1
same,Serious adverse event Arthralgia: Number of patients,[1]; [3],1
same,Serious adverse event Asthenia: Number of events,[1]; [3],1
same,Serious adverse event Asthenia: Number of patients,[1]; [3],1
same,Serious adverse event Atrial fibrillation: Number of events,[1]; [3],1
same,Serious adverse event Atrial fibrillation: Number of patients,[1]; [3],1
same,Serious adverse event Back pain: Number of events,[1]; [3],1
same,Serious adverse event Back pain: Number of patients,[1]; [3],1
same,Serious adverse event Disease progression: Number of events,[1]; [3],1
same,Serious adverse event Disease progression: Number of patients,[1]; [3],1
same,Serious adverse event Dyspnea: Number of events,[1]; [3],1
same,Serious adverse event Dyspnea: Number of patients,[1]; [3],1
same,Serious adverse event Edema peripheral: Number of events,[1]; [3],1
same,Serious adverse event Edema peripheral: Number of patients,[1]; [3],1
same,Serious adverse event Face edema: Number of events,[1]; [3],1
same,Serious adverse event Face edema: Number of patients,[1]; [3],1
same,Serious adverse event Febrile neutropenia: Number of events,[1]; [3],25
same,Serious adverse event Febrile neutropenia: Number of patients,[1]; [3],17
same,Serious adverse event Hematuria: Number of events,[1]; [3],1
same,Serious adverse event Hematuria: Number of patients,[1]; [3],1
same,Serious adverse event Hemorrhage intracranial: Number of events,[1]; [3],1
same,Serious adverse event Hemorrhage intracranial: Number of patients,[1]; [3],1
same,Serious adverse event Hyponatremia: Number of events,[1]; [3],1
same,Serious adverse event Hyponatremia: Number of patients,[1]; [3],1
same,Serious adverse event Infusion related reaction: Number of events,[1]; [3],1
same,Serious adverse event Infusion related reaction: Number of patients,[1]; [3],1
same,Serious adverse event Leukemic infiltration: Number of events,[1]; [3],1
same,Serious adverse event Leukemic infiltration: Number of patients,[1]; [3],1
same,Serious adverse event Lower gastrointestinal hemorrhage: Number of events,[1]; [3],1
same,Serious adverse event Lower gastrointestinal hemorrhage: Number of patients,[1]; [3],1
same,Serious adverse event Lung consolidation: Number of events,[1]; [3],1
same,Serious adverse event Lung consolidation: Number of patients,[1]; [3],1
same,Serious adverse event Lung infection: Number of events,[1]; [3],5
same,Serious adverse event Lung infection: Number of patients,[1]; [3],5
same,Serious adverse event Neck pain: Number of events,[1]; [3],1
same,Serious adverse event Neck pain: Number of patients,[1]; [3],1
same,Serious adverse event Neutrophil count decreased: Number of events,[1]; [3],1
same,Serious adverse event Neutrophil count decreased: Number of patients,[1]; [3],1
same,Serious adverse event Pain in jaw: Number of events,[1]; [3],1
same,Serious adverse event Pain in jaw: Number of patients,[1]; [3],1
same,Serious adverse event Palmar-plantar erythrodysaesthesia syndrome: Number of events,[1]; [3],1
same,Serious adverse event Palmar-plantar erythrodysaesthesia syndrome: Number of patients,[1]; [3],1
same,Serious adverse event Pharyngeal edema: Number of events,[1]; [3],1
same,Serious adverse event Pharyngeal edema: Number of patients,[1]; [3],1
same,Serious adverse event Physical deconditioning: Number of events,[1]; [3],1
same,Serious adverse event Physical deconditioning: Number of patients,[1]; [3],1
same,Serious adverse event Pleural effusion: Number of events,[1]; [3],1
same,Serious adverse event Pleural effusion: Number of patients,[1]; [3],1
same,Serious adverse event Pneumonia fungal: Number of events,[1]; [3],1
same,Serious adverse event Pneumonia fungal: Number of patients,[1]; [3],1
same,Serious adverse event Pneumonia: Number of events,[1]; [3],3
same,Serious adverse event Pneumonia: Number of patients,[1]; [3],3
same,Serious adverse event Pulmonary mass: Number of events,[1]; [3],1
same,Serious adverse event Pulmonary mass: Number of patients,[1]; [3],1
same,Serious adverse event Pyrexia: Number of events,[1]; [3],2
same,Serious adverse event Pyrexia: Number of patients,[1]; [3],2
same,Serious adverse event Rash maculo-papular: Number of events,[1]; [3],1
same,Serious adverse event Rash maculo-papular: Number of patients,[1]; [3],1
same,Serious adverse event Septic shock: Number of events,[1]; [3],1
same,Serious adverse event Septic shock: Number of patients,[1]; [3],1
same,Serious adverse event Seroma: Number of events,[1]; [3],1
same,Serious adverse event Seroma: Number of patients,[1]; [3],1
same,Serious adverse event Skin lesion: Number of events,[1]; [3],1
same,Serious adverse event Skin lesion: Number of patients,[1]; [3],1
same,Serious adverse event Soft tissue infection: Number of events,[1]; [3],1
same,Serious adverse event Soft tissue infection: Number of patients,[1]; [3],1
same,Serious adverse event Staphylococcal bacteremia: Number of events,[1]; [3],1
same,Serious adverse event Staphylococcal bacteremia: Number of patients,[1]; [3],1
same,Serious adverse event Stomatitis: Number of events,[1]; [3],1
same,Serious adverse event Stomatitis: Number of patients,[1]; [3],1
same,Serious adverse event Tumor lysis syndrome: Number of events,[1]; [3],1
same,Serious adverse event Tumor lysis syndrome: Number of patients,[1]; [3],1
same,Serious adverse event Urine output decreased: Number of events,[1]; [3],1
same,Serious adverse event Urine output decreased: Number of patients,[1]; [3],1
same,deaths while on treatment,"[1]; phase Ib, all related to AML or its complications",Three
same,specificity for PLK1,PLK1,high specificity
